Measured values taken from patent US20100330148A1, “MEHODS AND COMPOSITIONS FOR INHIBITING IMPDH-1 ISOFORM 1” (The Johns Hopkins University, priority 2006, published 2010).
Where “and” joins values, the source holds several entries; their conditions need not be identical. Equal entries are not always repeated.

Assays:
[1] = small cohorts of cancer patients (<35), diethanolamine salt; cited from earlier work
[2] = tested on: human umbilical vein endothelial cells (HUVEC); experiment: HUVEC proliferation, [3H]-thymidine incorporation; format: cell-based
Protocol: (§1) Library construction. 32,000 FDA drug approvals obtained by Freedom of Information Act requests were condensed to 3,400 unique drug formulations. Drugs were purchased from Sigma, Spectrum Chemicals, MP Biomedicals, The Johns Hopkins Hospital pharmacy, Biomol, and Tocris. 10 mM stock solutions were made using DMSO, water, or ethanol as solvents. Drugs were arrayed in 96-well plates and screened at a final concentration of 10 μM. Cells were incubated with drug for 36 h and proliferation was measured by pulsing with 1 μCi [^3H]-thymidine for 8 h followed by absorption onto glass filters and scintillation counting.
(§2) Statistical analysis. IC50 measurements were carried out in triplicate, and analyzed using four parameter logarithmic analysis. Values are presented +/− the standard error of the mean. P-values were calculated using the Student's T-test. IC50 measurements are carried out using standard assays, and include assays described in Gilbert H J, Lowe C R, Drabble W T. Biochem J. 1979, 183:481-94; and Xiang, B., Taylor, J. C., and Markham, G. D. J. Biol. Chem., 271, 1435 (1996); the contents of which are incorporated herein by reference.
A library of 1,850 FDA-approved drugs and 600 drugs that entered the clinic via approval in a foreign country or phase II clinical trials was created. […]

Jurkat T cells = experiment: Jurkat T-cell proliferation, [3H]-thymidine incorporation; format: cell-based
Protocol: as §1, §2
MPA is an immunosuppressive drug widely used to prevent rejection of transplanted organs (Lipsky, J. J: (1996) Lancet 348, 1357-1359.). The mechanism of action in the immune system is well established—MPA inhibits de novo biosynthesis of purines in T and B lymphocytes (Allison, A. C. & Eugui, E. M. (2000) Immunopharmacology 47, 85-118.). […] Thus, a comparison of HUVEC to Jurkat T cells for sensitivity to MPA in the presence and absence of guanine was carried out. […] Addition of guanine at or above 20 μM rendered Jurkat T cells resistant to MPA. Similar to Jurkat T cells, inhibition of HUVEC proliferation is also reversed by guanine in a dose-dependent manner (FIG. 1B). Unlike Jurkat T cells, however, HUVECs are less sensitive to guanine, the cause of which remains unknown. Similar reversal of MPA inhibition is also seen in HUVEC and Jurkat T-cells with the addition of exogenous guanosine and deoxyguanosine (data not shown).

HUVEC = experiment: Cell cycle analysis of HUVEC; format: cell-based, human
From the text: It has been shown that MPA causes cell cycle arrest in activated T and B lymphocytes at G1 (Laliberte, J., Yee, A., Xiong, Y. & Mitchell, B. S. (1998) Blood 91, 2896-2904.). Therefore, the effect of MPA on endothelial cell cycle progression was examined.

[3] = tested on: VEGF and bFGF stimulated angiogenesis (new blood vessel formation); experiment: Matrigel plug angiogenesis assay in mice; format: in vivo, mouse; details: 60 mg/kg/day s.c., 10 days after plug implantation, vs vehicle, p<0.002
Protocol: In vivo angiogenesis. Female C57BL/6NCr 5-week old, 25-30 g mice were purchased from NCI and treated in accordance with Johns Hopkins ACUC procedures. In all animal experiments the MPA prodrug mycophenolate mofetil i.v. formulation (Roche) was used. Mice were pretreated with drug for three days and then implanted with 0.5 mL of Matrigel (BD Biosciences) containing 100 ng/mL VEGF and 150 ng/mL bFGF. Drug treatment was continued daily for 10 days, mice were sacrificed, and plugs were harvested, fixed in neutral buffered formalin, and processed for histology using MAS-trichrome staining. The entire Matrigel plug was photographed at 100× and erythrocyte-filled blood vessels were counted per field.
Matrigel plugs' containing VEGF and bFGF were subcutaneously implanted into mice. The control group was treated with saline vehicle and the MPA group was treated with 60 or 120 mg/kg/day of drug. […] To quantify these differences we counted erythrocyte-filled blood vessels per 100× field (FIG. 3E) (Fahmy, R. G., Dass, C. R., Sun, L. Q., Chesterman, C. N. & Khachigian, L. M. (2003) Nat. Med. 9, 1026-1032), and observed a 69% decrease in new blood vessel formation in mice treated with MPA in comparison with vehicle control (p<0.002). Thus, MPA is capable of inhibiting angiogenesis at a therapeutically achievable dose in vivo.

RENCA cells = experiment: Murine renal cell carcinoma (RENCA) tumor model; format: in vivo, mouse; details: mice
Protocol: Renal cell tumor model. Female BALB/C5-6 week old, 25-30 g mice were purchased from NCI. Logarithmically growing RENCA cells (5×10^5) in 50 μL 50% PBS, 50% Matrigel were injected into the renal subcapsule through an incision in the left flank (Drevs, J., Hofmann, I., Hugenschmidt, H., Wittig, C., Madjar, H., Muller, M., Wood, J., Martiny-Baron, G., Unger, C. & Marme, D. (2000) Cancer Res. 60, 4819-4824.). The mice were sacrificed 3.5 weeks after surgery and the primary tumors were dissected and fixed for immunohistochemistry. For CD31 analysis eight fields with the highest level of angiogenesis were selected per tumor for quantification using ImagePro Plus software (Media Cybernetics), and represented as mean percentage area occupied by CD31 positive blood vessels.
Angiogenesis has been implicated in tumor growth among a number of other diseases. Although MPA inhibits fast-growing tumor cell lines in culture and in mouse xenograph experiments (Tressler, R. J., Garvin, L. J. & Slate, D. L. (1994) Int. J. Cancer 57, 568-573, Carter, S. B., Franklin, T. J., Jones, D. F., Leonard, B. J., Mills, S. D., Turner, R. W. & Turner, W. B. (1969) Nature 223, 848-850), it is unclear whether MPA also affects tumor-associated angiogenesis. We determined the efficacy of MPA in inhibiting tumor-associated angiogenesis in a murine renal cell carcinoma (RENCA) model (Salup, R. R. & Wiltrout, R. H. (1986) Cancer Res. 46, 3358-3363). MPA inhibited the growth of the primary tumor in a dose-dependent fashion, causing a 34% and 27% decrease in volume and weight, respectively, at 60 mg/kg/day and a 64% decrease in both volume and weight at 120 mg/kg/day (p<0.001) (FIG. 4A). The decrease in tumor growth caused by MPA at 120 mg/kg/day was accompanied by a 48% decrease in the area of CD31 positive staining blood vessels per 200× field (p<0.001).

[4] = human renal transplant patients, chronic oral treatment; cited from earlier work

Row | Compound | toxicity in patients [1] | IC50 ([2]; Homo sapiens, HUVEC, [3H]-thymidine incorporation, +/- standard error of the mean) | MPA inhibition of HUVEC proliferation with exogenous guanine ([2]; guanine 10 μM and 20 μM) | IC50 (Jurkat T cells; Homo sapiens, Jurkat, [3H]-thymidine incorporation, +/- standard error of the mean) | MPA inhibition of Jurkat T-cell proliferation with exogenous guanine (Jurkat T cells; guanine 10 μM) | MPA inhibition of Jurkat T-cell proliferation with exogenous guanine (Jurkat T cells; guanine 20 μM and 50 μM) | cell cycle effect (HUVEC; 1 μM MPA) | population of cells in S phase (HUVEC; 1 μM MPA (control 12%)) | population of cells in G2/M phase (HUVEC; 1 μM MPA (control 17.8%)) | population of cells in G1 phase (HUVEC; 1 μM MPA (control 71%)) | cell cycle effect of MPA after addition of guanosine (HUVEC; 1 μM MPA + 50 μM guanosine) | decrease in new blood vessel formation (erythrocyte-filled blood vessels per 100× field) [3] | decrease in primary tumor volume (RENCA cells; 60 mg/kg/day) | decrease in primary tumor weight (RENCA cells; 60 mg/kg/day) | decrease in primary tumor volume (RENCA cells; 120 mg/kg/day, p<0.001) | decrease in primary tumor weight (RENCA cells; 120 mg/kg/day, p<0.001) | decrease in area of CD31 positive staining blood vessels per 200× field (RENCA cells; 120 mg/kg/day, p<0.001, 120 mg/kg/day) | half life [4] | peak plasma level [4]
1 | COc1c(C)c2c(c(O)c1CC=C(C)CCC(=O)O)C(=O)OC2.OCCNCCO [diethanolamine salt of MPA] | considerable dose-limiting gastrointestinal toxicity | – | – | – | – | – | – | – | – | – | – | – | – | – | – | – | – | – | –
2 | COc1c(C)c2c(c(O)c1C/C=C(\C)CCC(=O)O)C(=O)OC2 [MPA, mycophenolic acid] | – | 99.2 nM | partially reversed | 128 nM | unaffected | completely reversed | G1/S cell cycle arrest | 6.5% | 12.4% | 81% | completely reversed | 69% | 34% | 27% | 64% | 64% | 49% and 48% | 18 h | 75 µM
